ChEMBL document CHEMBL1121833, “Structure--sweetness relationship of L-aspartyl dipeptide analogues. A receptor site topology” (J Med Chem, 1981)
Peptide text beside a SMILES is read from it.

experiment: Sweet potency as logarithm of sweet potency (log SP) relative to sucrose; Sweet; type: functional

| SMILES | Log SP |
| --- | --- |
| CCCC[C@H](CC)NC(=O)[C@H](N)CC(=O)O | Sweet |
| CCCCCCCNC(=O)[C@H](N)CC(=O)O | Sweet |
| CCCCCCNC(=O)[C@H](N)CC(=O)O | Sweet |
| N[C@H](CC(=O)O)C(=O)N[C@@H](CO)Cc1ccc(O)cc1 | Sweet |
| C[C@H](NC(=O)[C@H](N)CC(=O)O)C(O)c1ccccc1 (stereo partly drawn) | Sweet |
| N[C@H](CC(=O)O)C(=O)NCCc1ccco1 | Sweet |
| C[C@@H](Cc1ccc(O)cc1)NC(=O)[C@H](N)CC(=O)O | Sweet |
| CCOC(=O)[C@H](NC(=O)[C@H](N)CC(=O)O)C(=O)OC(C)(C)C | Sweet |
| N[C@H](CC(=O)O)C(=O)NCCc1ccc(O)cc1 | Sweet |
| N[C@H](CC(=O)O)C(=O)N[C@@H](CO)Cc1ccccc1 | Sweet |
| N[C@H](CC(=O)O)C(=O)NCCOc1ccccc1 | Sweet |
| CCC(C)C[C@H](C)NC(=O)[C@H](N)CC(=O)O (stereo partly drawn) | Sweet |

experiment: Sweet potency as logarithm of sweet potency (log SP) relative to sucrose; Bitter; type: functional

| SMILES | Log SP |
| --- | --- |
| C[C@@H](Cc1ccccc1)N(C)C(=O)[C@H](N)CC(=O)O | Bitter |
| CC(CNC(=O)[C@H](N)CC(=O)O)c1ccccc1 (stereo partly drawn) | Bitter |
| C[C@@H](Cc1ccc2c(c1)OCO2)NC(=O)[C@H](N)CC(=O)O | Bitter |
| C[C@@H](Cc1cc2ccccc2[nH]1)NC(=O)[C@H](N)CC(=O)O | Bitter |
| C[C@@H](Cc1ccc(NS(C)(=O)=O)cc1)NC(=O)[C@H](N)CC(=O)O | Bitter |
| C[C@H](CC1CCCCC1)N(C)C(=O)[C@H](N)CC(=O)O | Bitter |
| CCC[C@H](CC)NC(=O)[C@H](N)CC(=O)O | Bitter |
| COC(=O)[C@@H](CCCCN)NC(=O)[C@H](N)CC(=O)O | Bitter |
| C[C@@H](CC1CCCCC1)N(C)C(=O)[C@H](N)CC(=O)O | Bitter |
| CC(C)C[C@H](C)NC(=O)[C@H](N)CC(=O)O | Bitter |
| C[C@H](Cc1ccccc1)N(C)C(=O)[C@H](N)CC(=O)O | Bitter |

experiment: Sweet potency as logarithm of sweet potency (log SP) relative to sucrose; type: functional

| SMILES | Log SP |
| --- | --- |
| CCOC(=O)[C@H](C)NC(=O)[C@H](N)CC(=O)O | 1.75 |
| C[C@@H](Cc1ccc(F)cc1)NC(=O)[C@H](N)CC(=O)O | 1.5 |
| C[C@@H](CC(=O)OC1CCCCC1)NC(=O)[C@H](N)CC(=O)O | 0.64 |
| COC(=O)C(NC(=O)[C@@H](N)CC(=O)O)C(=O)OC1CC2CCC1(C)C2(C)C (stereo partly drawn) | 3.16 |
| N[C@H](CC(=O)O)C(=O)NCCC1CCCCC1 | 0.85 |
| CC(CNC(=O)[C@H](N)CC(=O)O)C(=O)OC(C)(C)C (stereo partly drawn) | 0.51 |
| COC(=O)[C@@H](CSC(C)(C)C)NC(=O)[C@H](N)CC(=O)O | 2.95 |
| CC(=O)OC[C@@H](NC(=O)[C@H](N)CC(=O)O)C(C)C | 1.58 |
| CC(=O)OC[C@H](C)NC(=O)[C@H](N)CC(=O)O | 1.61 |
| COC(=O)[C@@H](CCCCNC(C)=O)NC(=O)[C@H](N)CC(=O)O | 0.27 |
| CC[C@@H](Cc1ccccc1)NC(=O)[C@H](N)CC(=O)O | 0.89 |
| CCCCOC(=O)[C@H](NC(=O)[C@@H](N)CC(=O)O)[C@H](C)O | 1.23 |
| COC(=O)C(NC(=O)[C@@H](N)CC(=O)O)C(=O)OC1C(C)CCCC1C (stereo partly drawn) | 4.02 |
| CC(CNC(=O)[C@H](N)CC(=O)O)C(=O)OC1CCCCC1 (stereo partly drawn) | 0.94 |
| CC(=O)OCCNC(=O)[C@H](N)CC(=O)O | 0.28 |
| CCC(C)OC(=O)C[C@H](C)NC(=O)[C@H](N)CC(=O)O (stereo partly drawn) | 0.6 |
| COC(=O)C(NC(=O)[C@@H](N)CC(=O)O)C(=O)OC1CCCCC1C (stereo in doubt; 203) | 4.11 |
| CCOC(=O)[C@H](NC(=O)[C@H](N)CC(=O)O)C(=O)OC(C)(C)C | 2.32 |
| CC(C)[C@@H](COC(=O)C1CC1)NC(=O)[C@H](N)CC(=O)O | 1.22 |
| COC(=O)[C@@H](CC1CCCCC1)NC(=O)[C@H](N)CC(=O)O | 2.3 |
| CC(C)COC(=O)[C@H](NC(=O)[C@@H](N)CC(=O)O)[C@H](C)O | 1.36 |
| CC(C)OC(=O)C(C)CNC(=O)[C@H](N)CC(=O)O (stereo partly drawn) | 0.18 |
| N[C@H](CC(=O)O)C(=O)NCC(=O)OC1CCCCC1 | 1.02 |
| CCCC(=O)OC[C@H](C)NC(=O)[C@H](N)CC(=O)O | 1.58 |
| CCCC(=O)OCCNC(=O)[C@H](N)CC(=O)O | 0.56 |
| CCOC(=O)[C@H](NC(=O)[C@@H](N)CC(=O)O)[C@H](C)O | 1.93 |
| CC(C)OC(=O)[C@H](C)NC(=O)[C@H](N)CC(=O)O | 1.95 |

| SMILES | Log SP |
| --- | --- |
| COC(=O)[C@H](NC(=O)[C@@H](N)CC(=O)O)[C@H](C)O | 1.26 |
| C[C@@H](CCc1ccccc1)NC(=O)[C@H](N)CC(=O)O | 0.89 |
| CC[C@@H](COC(C)=O)NC(=O)[C@H](N)CC(=O)O | 1.16 |
| CCCC(O)[C@H](NC(=O)[C@H](N)CC(=O)O)C(=O)OC (stereo in doubt; 56) | 1.16 |
| CCCOC(=O)[C@H](C)NC(=O)[C@H](N)CC(=O)O | 2.1 |
| CCC(=O)OC[C@H](C)NC(=O)[C@H](N)CC(=O)O | 1.86 |
| CC(C)(Cc1ccccc1)NC(=O)[C@H](N)CC(=O)O | 1.19 |
| CCCOC(=O)[C@H](CO)NC(=O)[C@H](N)CC(=O)O | 2.39 |
| COC(=O)[C@@H](CCCNC(C)=O)NC(=O)[C@H](N)CC(=O)O | 0.25 |
| COC(=O)C(NC(=O)[C@@H](N)CC(=O)O)C(C)c1ccccc1 (stereo partly drawn) | 0.95 |
| COC(=O)CCNC(=O)[C@H](N)CC(=O)O | 0.11 |
| CC(=O)OC[C@H](CO)NC(=O)[C@H](N)CC(=O)O | 1.23 |
| COC(=O)C(NC(=O)[C@@H](N)CC(=O)O)C(=O)OC1CC(C)CC(C)(C)C1 (stereo partly drawn) | 2.76 |
| C=C(C)C(=O)OC[C@H](C)NC(=O)[C@H](N)CC(=O)O | 1.99 |
| CCC[C@@H](COC(C)=O)NC(=O)[C@H](N)CC(=O)O | 0.66 |
| N[C@H](CC(=O)O)C(=O)N[C@@H](CO)C(=O)OC1CCCCC1 | 1.72 |
| CCCC[C@@H](NC(=O)[C@H](N)CC(=O)O)C(=O)OC | 1.49 |
| CCCCC(=O)OC[C@H](C)NC(=O)[C@H](N)CC(=O)O | 0.6 |
| CC(C)COC(=O)[C@H](CO)NC(=O)[C@H](N)CC(=O)O | 2.21 |
| CCOC(=O)C[C@H](C)NC(=O)[C@H](N)CC(=O)O (stereo in doubt; 133) | 0.88 |
| CCCCCCC(C)NC(=O)[C@H](N)CC(=O)O (stereo partly drawn) | 1.17 |
| N[C@H](CC(=O)O)C(=O)NCCC(=O)OC1CCCC1 | 1.16 |
| CCCCC[C@@H](NC(=O)[C@H](N)CC(=O)O)C(=O)OC | 1.9 |
| CC[C@H](NC(=O)[C@H](N)CC(=O)O)C(=O)OC | 1.04 |
| CCOCC[C@H](C)NC(=O)[C@H](N)CC(=O)O | 1.14 |
| CCC(CC)C(=O)OC[C@H](C)NC(=O)[C@H](N)CC(=O)O | 1.53 |

experiment: Sweet potency as logarithm of sweet potency (log SP) relative to sucrose; No sweet; type: functional

| SMILES | Log SP |
| --- | --- |
| COC(=O)[C@@H](CC(=O)OC1CCCCC1)NC(=O)[C@H](N)CC(=O)O | Not sweet |
| COC(=O)[C@@H](CC(C)C)NC(=O)[C@H](N)CC(=O)O | Not sweet |
| COC(=O)C(CNC(=O)[C@H](N)CC(=O)O)Cc1ccccc1 (stereo partly drawn) | Not sweet |
| COC(=O)C(NC(=O)[C@@H](N)CC(=O)O)C(=O)OC1CC(C)CCC1C(C)C (stereo partly drawn) | Not sweet |
| CC[C@H](C)[C@H](NC(=O)[C@@H](N)CC(=O)O)C(=O)OC (H-Asp-Ile-OMe) | Not sweet |
| CCCCC(=O)OC[C@H](CC)NC(=O)[C@H](N)CC(=O)O | Not sweet |
| CCC(C)[C@@H](COC(C)=O)NC(=O)[C@H](N)CC(=O)O (stereo partly drawn) | Not sweet |
| C[C@@H](COC(=O)C1CCCCC1)NC(=O)[C@H](N)CC(=O)O | Not sweet |
| CC[C@@H](CC(=O)OC(C)C)NC(=O)[C@H](N)CC(=O)O | Not sweet |
| C[C@@H](COC(=O)c1ccccc1)NC(=O)[C@H](N)CC(=O)O | Not sweet |
| COC(=O)[C@@H](COC(=O)c1ccccc1)NC(=O)[C@H](N)CC(=O)O | Not sweet |
| CC(C)C[C@H](NC(=O)[C@H](N)CC(=O)O)C(=O)OC(C)C | Not sweet |
| COC(=O)C(CNC(=O)[C@H](N)CC(=O)O)C(=O)OC1CCCCC1 (stereo partly drawn) | Not sweet |
| CCOC(=O)C[C@H](Cc1ccccc1)NC(=O)[C@H](N)CC(=O)O | Not sweet |
| CCCCOC(=O)CCNC(=O)[C@H](N)CC(=O)O | Not sweet |
| CC(=O)OC[C@H](CC(C)C)NC(=O)[C@H](N)CC(=O)O | Not sweet |
| CC[C@@H](COC(=O)C1CCCCC1)NC(=O)[C@H](N)CC(=O)O | Not sweet |
| COC(=O)C(CNC(=O)[C@H](N)CC(=O)O)C(=O)OC | Not sweet |
| CC(=O)OC[C@H](Cc1ccccc1)NC(=O)[C@H](N)CC(=O)O | Not sweet |
| C[C@@H](COC(=O)C1CCCC(C)(C)C1)NC(=O)[C@H](N)CC(=O)O (stereo partly drawn) | Not sweet |
| CC[C@@H](CC(=O)OC1CCCCC1)NC(=O)[C@H](N)CC(=O)O | Not sweet |
| CCC[C@@H](COC(=O)CC)NC(=O)[C@H](N)CC(=O)O | Not sweet |
| COC(=O)C(CNC(=O)[C@H](N)CC(=O)O)C(=O)OC1CCCC1 (stereo partly drawn) | Not sweet |
| CC1CCCCC1OC(=O)CCNC(=O)[C@H](N)CC(=O)O (stereo partly drawn) | Not sweet |

experiment: Sweet potency as logarithm of sweet potency (log SP) relative to sucrose; Tasteless; type: functional

| SMILES | Log SP |
| --- | --- |
| N[C@H](CC(=O)O)C(=O)NCCc1ccccc1 | Tasteless |
| CC(C)CCCNC(=O)[C@H](N)CC(=O)O | Tasteless |
| CCC[C@H](C)NC(=O)[C@H](N)CC(=O)O | Tasteless |
